# Experimental data as given in US12479840B2, “HMG-CoA reductase degradation inducing compound” (Uppthera, priority 2020, dated 2025).
# Molecular target: T1, HMG-CoA reductase (Homo sapiens, UniProt P04035)
# T1 construct: endogenous in cells; host or cells: HepG2 (Korea Cell Line Bank)
# T1 sequence (P04035 1-888): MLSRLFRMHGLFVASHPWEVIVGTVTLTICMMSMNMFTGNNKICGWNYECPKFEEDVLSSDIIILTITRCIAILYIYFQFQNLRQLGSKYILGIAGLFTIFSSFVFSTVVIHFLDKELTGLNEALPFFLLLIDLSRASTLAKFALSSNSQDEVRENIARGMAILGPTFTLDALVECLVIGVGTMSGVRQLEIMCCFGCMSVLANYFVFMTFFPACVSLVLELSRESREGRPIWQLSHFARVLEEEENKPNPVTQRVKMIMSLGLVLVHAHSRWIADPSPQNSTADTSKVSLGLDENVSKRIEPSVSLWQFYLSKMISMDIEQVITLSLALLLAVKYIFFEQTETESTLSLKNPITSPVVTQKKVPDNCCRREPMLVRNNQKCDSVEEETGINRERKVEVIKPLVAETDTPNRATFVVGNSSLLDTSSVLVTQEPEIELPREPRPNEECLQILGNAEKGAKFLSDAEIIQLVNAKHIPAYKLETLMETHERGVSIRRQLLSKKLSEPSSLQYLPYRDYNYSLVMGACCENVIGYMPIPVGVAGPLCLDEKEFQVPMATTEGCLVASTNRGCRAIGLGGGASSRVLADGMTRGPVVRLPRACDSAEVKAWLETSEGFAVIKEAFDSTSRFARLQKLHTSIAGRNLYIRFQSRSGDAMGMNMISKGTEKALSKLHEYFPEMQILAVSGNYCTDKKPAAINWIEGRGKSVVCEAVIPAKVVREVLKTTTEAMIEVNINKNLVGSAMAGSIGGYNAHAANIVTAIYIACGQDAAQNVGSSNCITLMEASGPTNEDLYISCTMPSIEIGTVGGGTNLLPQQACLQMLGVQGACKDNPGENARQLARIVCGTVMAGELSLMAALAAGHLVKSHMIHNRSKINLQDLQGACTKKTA
# Assay: HMG-CoA reductase (HMGCR) degradation in HepG2 cells by western blotting
# Assay type: cell-based
# Settings: treated for 18 hours, ratio of HMG-CoA reductase to GAPDH, read-out: DC50
# Experimental: HepG2, a human liver cancer cell line, was purchased from the Korea Cell Line Bank (KCLB), Seoul, Korea. The passage in cell culture was maintained at P105 to P110.
# The compounds of the present invention were completely dissolved in DMSO and used in the experiment. 2×10^5 cells were seeded for each well of a 12-well plate (SPL), and the cells were cultured in the culture medium in a total volume of 2 ml. Each of the compounds of the present invention and comparative compounds was diluted three folds from the highest concentration of 3 μM to the lowest concentration in 10 points and treated for 18 hours.
# Each of the compounds the present invention and comparative compounds was diluted three folds from the highest concentration of 3 μM to the lowest concentration of […] in 10 points and was treated for 18 hours.
# For SDS-PAGE and Western blotting, 1×RIPA lysis buffer (Rockland, Cat. No. MB-030-0050; Lot no. 39751), 100× Protease Inhibitor Cocktail (Quartett, Cat. No. PPI1015; Lot no. PCO50038424), Pierce™ BCA protein assay kit (ThermoScientific, Cat. No. 23225; Lot no. UC276876), albumin standard (ThermoScientific, Cat. No. 23209; Lot no. UB269561), 4-15% Mini-PROTEAN TGX stain-free gel (Bio-rad, Cat. No. 4568085; Lot no. L007041B), 10× Tris/Glycine/SDS buffer (Bio-rad, Cat. No. 1610732; Lot no. 10000044375B); 10×TBS (Bio-rad, Cat. No. 1706435; Lot no. 1000045140B), 10% Tween 20 (Cat. No. 1610781; Lot no. L004152B), Color protein standard broad range (NEB, Cat. No. P7719S; Lot no. 10040349), 4× Laemmli sample buffer (Bio-rad, Cat. No. 1610747; Lot no. L004133B), β-mercaptoethanol (Sigma-Aldrich, Cat. No. M3148; Lot no. 60-24-2), SuperBlock™ T20 (TBS) blocking buffer (ThermoScientific, Cat. No. 37536; Lot no. UC282578), 1M sodium azide solution (Sigma-Aldrich, Cat. No. 08591-1 mL-F; Lot no. BCBV4989), α-Rabbit pAb to Ms IgG (abcam, Cat. No. ab97046; Lot no. GR3252115-1), α-Goat pAb to Rb IgG (CST, Cat. No. 7074S; Lot no. 28), α-GAPDH (abcam, Cat. No. ab8245), α-HMGCR (GeneTex, Cat. No. GTX54088; Lot no. 821903509), ECL™ Prime western blotting reagents (GE Healthcare, Cat. No. RPN2232; Lot no. 17001655), Ponceau S solution (Sigma-Aldrich, Cat. No. P7170; Lot no. SLBV4112), Difco™ Skim milk (BD, Cat. No. 232100; Lot no. 8346795), and iBlot® 2 NC Regular stacks (Invitrogen, Cat. No. IB23001; Lot no. 2NR110619-02), were used.
# For cell harvesting, the cells were first separated from the plate using trypsin and then washed with the medium and PBS. Specifically, the medium was suctioned off and washed with 1 mL of PBS, and PBS was suctioned off. The cells were treated with 0.5 mL TrypLE™ Express at 37° C. for 7 minutes to separate the cells, and then 0.5 mL of complete medium was added to collect 1 mL of cell culture solution. Then, 1 mL of the cell collection solution was centrifuged at 8,000 rpm for 120 seconds, and the supernatant was removed. After washing with 0.2 mL of PBS, the PBS was removed.
# For cell lysis, a lysis buffer was added and cell debris was removed to obtain a cell lysate. Specifically, the cells were treated with 70 μL of 1×RIPA buffer containing a protease inhibitor and incubated for 30 minutes on ice. Then, the cells were centrifuged at 4° C. and 15,000 rpm for 10 minutes to obtain a cell lysate.
# Then, a standard curve was obtained using the BCA assay, and the protein mass in the lysate was quantified by substituting the curve. The mixture was incubated at 37° C. for 30 minutes using 20 μL of standard or sample solution, and 200 μL of BCA or Bradford solution, and measured at 562 nm absorbance. Samples were prepared by adding 4× sample buffer so that the quantity of protein added to each well was 15 μg.
# Sodium dodecyl sulfate polyacrylamide gel electrophoresis (SDS-PAGE) was performed by setting a running time of 100 minutes at 120 V on a 4-15% Mini-PROTEAN TGX stain-free gel (15 well). Transferring was performed on iBlot® 2 NC Mini stacks at P0 mode of the dry blotting system. […]
row,DC50 [nM],SMILES
1,> 500,"C[C@H]1C=C2C=C[C@H](C)[C@H](CC[C@@H]3C[C@@H](O)CC(=O)O3)[C@H]2[C@@H](OC(=O)C(C)(C)CCC(=O)NCCOCCOCCOCCNc2ccccc2)C1 [Compound 1, (1S,3R,7S,8S,8aR)-8-(2-((2R,4R)-4-hydroxy-6-oxotetrahydro-2H-pyran-2-yl)ethyl)-3,7-dimethyl-1,2,3,7,8,8a-hexahydronaphthalen-1-yl 16,16-dimethyl-13-oxo-1-(phenylamino)-3,6,9-trioxa-12-azaheptadecan-17-oate]"
2,< 50,"C[C@H]1C=C2C=C[C@H](C)[C@H](CC[C@@H]3C[C@@H](O)CC(=O)O3)[C@H]2[C@@H](OC(=O)C(C)(C)CCC(=O)NCCOCCOCCNc2cccc3c2C(=O)N(C2CCC(=O)NC2=O)C3=O)C1 (stereo partly drawn) [Compound 2, (1S,3R,7S,8S,8aR)-8-(2-((2R,4R)-4-hydroxy-6-oxotetrahydro-2H-pyran-2-yl)ethyl)-3,7-dimethyl-1,2,3,7,8,8a-hexahydronaphthalen-1-yl 5-((2-(2-(2-((2-(2,6-dioxopiperidin-3-yl)-1,3-dioxoisoindolin-4-yl)amino)ethoxy)ethoxy)ethyl)amino)-2,2-dimethyl-5-oxopentanoate]"
3,< 50,"C[C@H]1C=C2C=C[C@H](C)[C@H](CC[C@@H]3C[C@@H](O)CC(=O)O3)[C@H]2[C@@H](OC(=O)C(C)(C)CCC(=O)NCCOCCOCCOCCNc2cccc3c2C(=O)N(C2CCC(=O)NC2=O)C3=O)C1 (stereo partly drawn) [Compound 3, (1S,3R,7S,8S,8aR)-8-(2-((2R,4R)-4-hydroxy-6-oxotetrahydro-2H-pyran-2-yl)ethyl)-3,7-dimethyl-1,2,3,7,8,8a-hexahydronaphthalen-1-yl 1-((2-(2,6-dioxopiperidin-3-yl)-1,3-dioxoisoindolin-4-yl)amino)-16,16-dimethyl-13-oxo-3,6,9-trioxa-12-azaheptadecan-17-oate]"
4,< 50,"C[C@H]1C=C2C=C[C@H](C)[C@H](CC[C@@H]3C[C@@H](O)CC(=O)O3)[C@H]2[C@@H](OC(=O)C(C)(C)CCC(=O)NCCOCCOCCOCCOCCNc2cccc3c2C(=O)N(C2CCC(=O)NC2=O)C3=O)C1 (stereo partly drawn) [Compound 4, (1S,3R,7S,8S,8aR)-8-(2-((2R,4R)-4-hydroxy-6-oxotetrahydro-2H-pyran-2-yl)ethyl)-3,7-dimethyl-1,2,3,7,8,8a-hexahydronaphthalen-1-yl 1-((2-(2,6-dioxopiperidin-3-yl)-1,3-dioxoisoindolin-4-yl)amino)-19,19-dimethyl-16-oxo-3,6,9,12-tetraoxa-15-azaicosan-20-oate]"
5,< 50,"C[C@H]1C=C2C=C[C@H](C)[C@H](CC[C@@H]3C[C@@H](O)CC(=O)O3)[C@H]2[C@@H](OC(=O)C(C)(C)CCC(=O)NCCOCCOCCOCCOCCOCCNc2cccc3c2C(=O)N(C2CCC(=O)NC2=O)C3=O)C1 (stereo partly drawn) [Compound 5, (1S,3R,7S,8S,8aR)-8-(2-((2R,4R)-4-hydroxy-6-oxotetrahydro-2H-pyran-2-yl)ethyl)-3,7-dimethyl-1,2,3,7,8,8a-hexahydronaphthalen-1-yl 1-((2-(2,6-dioxopiperidin-3-yl)-1,3-dioxoisoindolin-4-yl)amino)-22,22-dimethyl-19-oxo-3,6,9,12,15-pentaoxa-18-azatricosan-23-oate]"
6,< 50,"C[C@H]1C=C2C=C[C@H](C)[C@H](CC[C@@H]3C[C@@H](O)CC(=O)O3)[C@H]2[C@@H](OC(=O)C(C)(C)CCC(=O)NCCOCCOCCOCCOCCOCCOCCNc2cccc3c2C(=O)N(C2CCC(=O)NC2=O)C3=O)C1 (stereo partly drawn) [Compound 6, (1S,3R,7S,8S,8aR)-8-(2-((2R,4R)-4-hydroxy-6-oxotetrahydro-2H-pyran-2-yl)ethyl)-3,7-dimethyl-1,2,3,7,8,8a-hexahydronaphthalen-1-yl 1-((2-(2,6-dioxopiperidin-3-yl)-1,3-dioxoisoindolin-4-yl)amino)-25,25-dimethyl-22-oxo-3,6,9,12,15,18-hexaoxa-21-azahexacosan-26-oate]"
7,> 500,"C[C@H]1C=C2C=C[C@H](C)[C@H](CC[C@@H]3C[C@@H](O)CC(=O)O3)[C@H]2[C@@H](OC(=O)C(C)(C)CCC(=O)NCCOCCOCCOCC(=O)NCC(C)(C)C)C1 [Compound 7, (1S,3R,7S,8S,8aR)-8-(2-((2R,4R)-4-hydroxy-6-oxotetrahydro-2H-pyran-2-yl)ethyl)-3,7-dimethyl-1,2,3,7,8,8a-hexahydronaphthalen-1-yl 2,2,20,20-tetramethyl-5,17-dioxo-7,10,13-trioxa-4,16-diazahenicosan-21-oate]"
8,< 50,"Cc1ncsc1-c1ccc(CNC(=O)[C@@H]2C[C@@H](O)CN2C(=O)[C@@H](NC(=O)COCCNC(=O)CCC(C)(C)C(=O)O[C@H]2C[C@@H](C)C=C3C=C[C@H](C)[C@H](CC[C@@H]4C[C@@H](O)CC(=O)O4)[C@H]32)C(C)(C)C)cc1 [Compound 8, (1S,3R,7S,8S,8aR)-8-(2-((2R,4R)-4-hydroxy-6-oxotetrahydro-2H-pyran-2-yl)ethyl)-3,7-dimethyl-1,2,3,7,8,8a-hexahydronaphthalen-1-yl 5-((2-(2-(((S)-1-((2S,4R)-4-hydroxy-2-((4-(4-methylthiazol-5-yl)benzyl)carbamoyl)pyrrolidin-1-yl)-3,3-dimethyl-1-oxobutan-2-yl)amino)-2-oxoethoxy)ethyl)amino)-2,2-dimethyl-5-oxopentanoate]"
